For three molecules, microsomal CLint and IC50 results are on record in patent publication US12209096B2, “Compounds and compositions for inducing chondrogenesis” (NOVARTIS AG, priority 2017, dated 2025).

Holding throughout (format): in vitro ADME
The nature of series [1]: intrinsic clearance in rat liver microsomes.
Series [2] in a line: intrinsic clearance in human liver microsomes. Background: Liver microsomes are vesicles of endoplasmic reticulum, rich in cytochrome P450 enzymes.
A further series concerns the target CYP3A4 (Homo sapiens, UniProt P08684). The series is described as follows: CYP3A4 inhibition. The following applies: read-out: CYP3A4 inh.

Molecules are shown by their SMILES.

Chain of CYP3A4 (P08684 whole entry): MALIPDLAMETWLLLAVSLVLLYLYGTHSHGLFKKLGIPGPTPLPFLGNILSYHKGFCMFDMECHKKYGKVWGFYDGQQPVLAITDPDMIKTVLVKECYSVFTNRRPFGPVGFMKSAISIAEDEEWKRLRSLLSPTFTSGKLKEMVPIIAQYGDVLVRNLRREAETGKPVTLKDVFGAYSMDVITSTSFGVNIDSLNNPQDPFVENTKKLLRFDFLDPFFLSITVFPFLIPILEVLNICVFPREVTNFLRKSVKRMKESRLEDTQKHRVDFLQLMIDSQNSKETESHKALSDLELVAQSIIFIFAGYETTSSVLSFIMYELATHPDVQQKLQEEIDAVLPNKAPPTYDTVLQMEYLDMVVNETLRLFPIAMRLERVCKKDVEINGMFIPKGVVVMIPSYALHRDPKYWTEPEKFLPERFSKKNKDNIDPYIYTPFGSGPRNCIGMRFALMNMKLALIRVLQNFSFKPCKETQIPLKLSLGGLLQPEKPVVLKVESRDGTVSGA

Regarding `O=C(Nc1ccc(Cl)c(Cl)c1)[C@H]1[C@@H](c2ccncc2)[C@@H]2CC[C@H]1O2` [reference compound], the values for the intrinsic clearance (microsomal CLint) in series [1] and in series [2] were 466 µL/min/mg and 202 µL/min/mg, respectively. Besides, the IC50 on CYP3A4 was 6 µM.

Regarding `Nc1cc([C@H]2[C@H]3O[C@H](C[C@@H]3O)[C@@H]2C(=O)Nc2ccc(Cl)c(Cl)c2)ccn1` [drawing 199], the microsomal CLint in series [1] was found to be 11 µL/min/mg; in series [2] it was 7 µL/min/mg. The IC50 at CYP3A4 turned out to be 20 µM.

In the case of `Nc1cc([C@@H]2[C@@H](C(=O)Nc3ccc(Cl)c(Cl)c3)[C@H]3CC[C@@H]2O3)ccn1` [reference compound], the results for the microsomal CLint in series [1] and in series [2] were 243 µL/min/mg and 38 µL/min/mg, respectively. Further, the IC50 on CYP3A4 was 5 µM.

For orientation: microsomal CLint means a measure of how fast metabolising enzymes remove a compound, apart from limits set by blood flow. Higher therefore signals faster metabolism.
